According to patent US20260285850A1, “SUBSTITUTED OXAZOLIDINONES AND IMIDAZOLINONES AS HERBICIDES” (FMC CORPORATION, priority 2023, published 2026):

Columns and labels:
Type in all cases: in vivo
[1] = tested on: barnyardgrass (Echinochloa crus-galli); assay: Test A preemergence soil spray, visual injury rating 0-100; settings: 10 days
Summary of the method: (§1)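 Compounds formulated in a non-phytotoxic solvent with surfactant are sprayed onto soil of freshly planted loam-sand pots ahead of emergence, or onto emerged plants 2-10 cm tall. After a 10-day greenhouse period, each species is scored visually for injury against untreated controls.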

[2] = tested on: blackgrass (Alopecurus myosuroides); assay: as above; settings: 10 days
Summary of the method: as §1

corn (Zea mays) [3] = assay: as above; settings: 10 days
Summary of the method: as §1

[4] = tested on: green foxtail (Setaria viridis); assay: as above; settings: 10 days
Summary of the method: as §1

kochia (Bassia scoparia) [5] = assay: as above; settings: 62 g ai/ha, 10 days, 0 = no effect, 100 = complete control
Summary of the method: as §1

[6] = tested on: oat, wild (wild oat, Avena fatua); assay: as above; settings: 10 days
Summary of the method: as §1

[7] = tested on: palmer (palmer amaranth, palmer pigweed, Amaranthus palmeri); assay: as above; settings: 10 days
Summary of the method: as §1

[8] = tested on: ragweed (common ragweed, Ambrosia artemisiifolia); assay: as above; settings: 10 days
Summary of the method: as §1

[9] = tested on: ryegrass, Italian (italian ryegrass, Lolium multiflorum); assay: as above; settings: 10 days
Summary of the method: as §1

soybean (Glycine max) [10] = assay: as above; settings: 10 days
Summary of the method: as §1

[11] = tested on: wheat (Triticum aestivum); assay: as above; settings: 10 days
Summary of the method: as §1

[12] = tested on: barnyardgrass (Echinochloa crus-galli); assay: Test A postemergence application, visual injury rating 0-100
Summary of the method: as §1

[13] = tested on: blackgrass (Alopecurus myosuroides); assay: as above
Summary of the method: as §1

corn (Zea mays) [14] = assay: as above
Summary of the method: as §1

[15] = tested on: galium (catchweed bedstraw, Galium aparine); assay: as above
Summary of the method: as §1

[16] = tested on: green foxtail (Setaria viridis); assay: as above
Summary of the method: as §1

[17] = tested on: horseweed (Erigeron canadensis); assay: as above
Summary of the method: as §1

kochia (Bassia scoparia) [18] = assay: as above
Summary of the method: as §1

[19] = tested on: oat, wild (wild oat, Avena fatua); assay: as above
Summary of the method: as §1

[20] = tested on: palmer (palmer amaranth, palmer pigweed, Amaranthus palmeri); assay: as above
Summary of the method: as §1

[21] = tested on: ragweed (common ragweed, Ambrosia artemisiifolia); assay: as above
Summary of the method: as §1

[22] = tested on: ryegrass, Italian (italian ryegrass, Lolium multiflorum); assay: as above
Summary of the method: as §1

soybean (Glycine max) [23] = assay: as above
Summary of the method: as §1

[24] = tested on: wheat (Triticum aestivum); assay: as above
Summary of the method: as §1

[25] = tested on: barnyardgrass (Echinochloa crusgalli); assay: Test B flooded paddy test, visual plant response rating 0-100; settings: 250 g ai/ha, Flood, applied to paddy water, evaluated after 13 days
Summary of the method: (§2)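 Plants were grown to the 2-leaf stage, then pots were flooded to 3 cm above the soil and test compounds were applied directly into the paddy water. Water depth was held there throughout; after 13 days in a greenhouse, injury was scored visually against untreated controls.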

[26] = tested on: ducksalad (Heteranthera limosa); assay: as above; settings: 250 g ai/ha, Flood, applied to paddy water, evaluated after 13 days
Summary of the method: as §2

rice (Oryza sativa) = assay: as above; settings: 250 g ai/ha, Flood, applied to paddy water, evaluated after 13 days
Summary of the method: as §2

[27] = tested on: sedge, umbrella (small-flower umbrella sedge, Cyperus difformis); assay: as above; settings: 250 g ai/ha, Flood, applied to paddy water, evaluated after 13 days
Summary of the method: as §2

[28] = 62 g ai/ha, 0 = no effect, 100 = complete control
[29] = 62 g ai/ha, postemergence, 10 days, 0 = no effect, 100 = complete control
[30] = Postemergence, 16 g ai/ha, greenhouse 10 days, 0 no effect, 100 complete control

Q: With CCOC(=O)C1C=CC(NC(=O)C2(C)CN(c3cc(C)cc(C)c3)C(=O)O2)C1 (stereo not drawn) [Compound 116] as the compound, how does the “Barnyardgrass plant response rating” value ([1]; 16 g ai/ha, 0 to 100 scale) read?
A: The value was 30.

Q: And the “Barnyardgrass plant response rating (0-100)” value [1, 28]?
A: Its value is 100.

Q: What about the “Blackgrass plant response rating” value ([2]; 16 g ai/ha, 0 to 100 scale) of the same compound?
A: Its value is 0.

Q: And the “Blackgrass plant response rating (0-100)” value [2, 28]?
A: The value was 70.

Q: What about the “Corn plant response rating” value (corn (Zea mays) [3]; 16 g ai/ha, 0 to 100 scale) of the same compound?
A: The value was 0.

Q: And the “Corn plant response rating (0-100)” value (corn (Zea mays) [3]; [28])?
A: The value was 10.

Q: What about the “Foxtail, Green plant response rating” value ([4]; 16 g ai/ha, 0 to 100 scale) of the same compound?
A: Its value is 0.

Q: And the “Foxtail, Green plant response rating (0-100)” value [4, 28]?
A: Its value is 80.

Q: And the “Kochia plant response rating (0-100)” value (kochia (Bassia scoparia) [5])?
A: The value was 100.

Q: And the “Oat, Wild plant response rating” value ([6]; 16 g ai/ha, 0 to 100 scale)?
A: The value was 0.

Q: And the “Oat, Wild plant response rating (0-100)” value [6, 28]?
A: Its value is 50.

Q: And the “Pigweed, Palmer plant response rating” value ([7]; 16 g ai/ha, 0 to 100 scale)?
A: The value was 10.

Q: And the “Pigweed, Palmer plant response rating (0-100)” value [7, 28]?
A: The value was 100.

Q: And the “Ragweed plant response rating” value ([8]; 16 g ai/ha, 0 to 100 scale)?
A: Its value is 0.

Q: And the “Ragweed plant response rating (0-100)” value [8, 28]?
A: The value was 0.

Q: What about the “Ryegrass, Italian plant response rating” value ([9]; 16 g ai/ha, 0 to 100 scale) of the same compound?
A: Its value is 0.

Q: What about the “Ryegrass, Italian plant response rating (0-100)” value [9, 28] of the same compound?
A: Its value is 70.

Q: And the “Soybean plant response rating” value (soybean (Glycine max) [10]; 16 g ai/ha, 0 to 100 scale)?
A: The value was 0.

Q: And the “Soybean plant response rating (0-100)” value (soybean (Glycine max) [10]; [28])?
A: Its value is 0.

Q: What about the “Wheat plant response rating” value ([11]; 16 g ai/ha, 0 to 100 scale) of the same compound?
A: Its value is 0.

Q: And the “Wheat plant response rating (0-100)” value [11, 28]?
A: The value was 30.

Q: And the “Barnyardgrass plant response rating (0-100)” value [12, 29]?
A: Its value is 100.

Q: And the “Barnyardgrass plant response rating (0 to 100 scale)” value [12, 30]?
A: The value was 70.

Q: What about the “Blackgrass plant response rating (0-100)” value [13, 29] of the same compound?
A: The value was 90.

Q: What about the “Blackgrass plant response rating (0 to 100 scale)” value [13, 30] of the same compound?
A: Its value is 80.

Q: What about the “Corn plant response rating (0-100)” value (corn (Zea mays) [14]; [29]) of the same compound?
A: Its value is 100.

Q: And the “Corn plant response rating (0 to 100 scale)” value (corn (Zea mays) [14]; [30])?
A: The value was 40.

Q: And the “Galium plant response rating (0-100)” value [15, 29]?
A: The value was 70.

Q: And the “Galium plant response rating (0 to 100 scale)” value [15, 30]?
A: The value was 60.

Q: And the “Foxtail, Green plant response rating (0-100)” value [16, 29]?
A: The value was 30.

Q: And the “Foxtail, Green plant response rating (0 to 100 scale)” value [16, 30]?
A: The value was 10.

Q: What about the “Horseweed plant response rating (0-100)” value [17, 29] of the same compound?
A: The value was 0.

Q: What about the “Horseweed plant response rating (0 to 100 scale)” value [17, 30] of the same compound?
A: The value was 0.

Q: And the “Kochia plant response rating (0-100)” value (kochia (Bassia scoparia) [18]; [29])?
A: The value was 60.

Q: And the “Kochia plant response rating (0 to 100 scale)” value (kochia (Bassia scoparia) [18]; [30])?
A: The value was 20.

Q: What about the “Oat, Wild plant response rating (0-100)” value [19, 29] of the same compound?
A: The value was 90.

Q: What about the “Oat, Wild plant response rating (0 to 100 scale)” value [19, 30] of the same compound?
A: The value was 60.

Q: What about the “Pigweed, Palmer plant response rating (0-100)” value [20, 29] of the same compound?
A: Its value is 40.

Q: And the “Pigweed, Palmer plant response rating (0 to 100 scale)” value [20, 30]?
A: The value was 0.

Q: And the “Ragweed plant response rating (0-100)” value [21, 29]?
A: The value was 30.

Q: And the “Ragweed plant response rating (0 to 100 scale)” value [21, 30]?
A: Its value is 0.

Q: What about the “Ryegrass, Italian plant response rating (0-100)” value [22, 29] of the same compound?
A: Its value is 70.

Q: What about the “Ryegrass, Italian plant response rating (0 to 100 scale)” value [22, 30] of the same compound?
A: Its value is 20.

Q: What about the “Soybean plant response rating (0-100)” value (soybean (Glycine max) [23]; [29]) of the same compound?
A: The value was 60.

Q: And the “Soybean plant response rating (0 to 100 scale)” value (soybean (Glycine max) [23]; [30])?
A: Its value is 50.

Q: And the “Wheat plant response rating (0-100)” value [24, 29]?
A: The value was 90.

Q: And the “Wheat plant response rating (0 to 100 scale)” value [24, 30]?
A: Its value is 40.

Q: And the “Plant response rating, Barnyardgrass (0 to 100 scale, 0 is no effect and 100 is complete control)” value [25]?
A: The value was 75.

Q: What about the “Plant response rating, Ducksalad (0 to 100 scale, 0 is no effect and 100 is complete control)” value [26] of the same compound?
A: The value was 45.

Q: And the “Plant response rating, Rice (0 to 100 scale, 0 is no effect and 100 is complete control)” value (rice (Oryza sativa))?
A: Its value is 50.

Q: What about the “Plant response rating, Sedge, Umbrella (0 to 100 scale, 0 is no effect and 100 is complete control)” value [27] of the same compound?
A: The value was 55.
